Results on five molecules are retold here after patent US20250339569A1, “CARBONIC ANHYDRASE IX LIGANDS” (priority 2021, published 2025).

Data set [1] concerns the target T1, CAIX-expressing human HT-29 colorectal cancer cells (Homo sapiens, UniProt Q16790).
T1 construct: CAIX-expressing human HT-29 colorectal cancer cells; host or cells: HT-29 human colorectal cancer cells
The experiment in a line: FACS binding assay (EC50 determination, labeled compound). To be noted: biotinylated or fluorophore-labeled compound, HT-29 cells, 4°C, 1 hour, read-out: pEC50 category (activity) (converted). The procedure: In order to determine binding of compounds according to the present invention to CAIX-expressing cells, a FACS binding assay was established.
CAIX-expressing human HT-29 colorectal cancer cells (DSMZ, RRID: CVCL_0320) were cultured in McCoys's 5A modified medium (Biochrom, #F1015) including 10% fetal calf serum (FCS), 2 mM L-glutamine, 100 U/ml penicillin and 100 μg/mL streptomycin. Cells were detached with Accutase (Biolegend, #423201) and washed in FACS buffer (PBS including 1% FCS). Cells were diluted in FACS buffer to a final concentration of 500.000 cells per ml. 200 μL of the cell suspension were transferred to a u-shaped non-binding 96-well plate (Greiner) and cells were washed in ice-cold FACS buffer.
When biotinylated compounds were used an additional incubation step with 1 μg/mL APC-Streptavidin (Miltenyi; #130-106-791) in 50 μL FACS buffer for 30 minutes on ice was performed.
Cells were washed twice with ice-cold FACS buffer and analyzed in an Attune NxT flow cytometer (Thermo Fisher). Median fluorescence intensities (MFI) of the APC/Cy5-channel were calculated by Attune NxT software. MFI values were plotted against peptide concentration and four parameter logistic (4PL) curve fitting and EC50/pEC50 or IC50/pIC50 calculations were performed using ActivityBase software.
(In general: Flow cytometry measures light scatter and fluorescence of single cells or particles in a stream.)

In data set [2] the test system is HT-29 (CRC) human cancer cell line xenograft. As to the kind of experiment: In vivo efficacy, uptake and tolerability of 177Lu-DPI-4452 (and 68Ga-DPI-4452) in HT-29 xenograft mouse model. Also noted: species or system NMRI nude mice. The note with it: HT-29 model; for tolerability of treatment: 177Lu 33 or 100 MBq or 3×33 MBq, 68Ga 10 MBq, i.v.; for uptake in tumor compared to kidney and liver: SPECT/CT 4 h (177Lu) or PET/CT 1 h (68Ga). The protocol: (§1) The human colorectal cancer cell line HT-29 was cultured in Modified McCoy's 5a Medium supplemented with 10% FBS+1% Pen/Strep, and the human clear cell renal cancer cell line SK-RC-52 was cultured in RPMI-1640 GlutaMax-I supplemented with 10% FBS+1% Pen/Strep.
(§2) 2×10^6 cells were suspended in 100 μL PBS and Matrigel (1:1) and subcutaneously implanted into the neck of anesthetized female immunodeficient NMRI nude mice. Tumor volume (0.52×(length×width^2)) and animal weight was monitored twice weekly until 42 days post treatment initiation. Animals were humanely euthanized by cervical dislocation at predefined study or humane endpoints.
(§3) Animals were randomized into equal groups based on tumor volume and body weight. Treatments were initiated at a mean group tumor volume of 140-180 mm^3 and administered intravenously in the tail vein in a 100 μL dosing volume.
(§4) For both models, treatment groups consisted of 10 mice per group and received either a A) Single administration (day 1) of vehicle, B) Single administration (day 1) of 100 MBq of ^177Lu-DPI-4452, C) Single administration (day 1) of 33 MBq of ^177Lu-DPI-4452 or D) Three administrations (day 1, 8, 15) of 33 MBq of ^177Lu-DPI-4452. To correlate the ^68Ga-DPI-4452 signal with the ^177Lu-DPI-4452 uptake in tumors, an additional satellite group E of 6 mice received a single administration (day 1) of 10 MBq of ^68Ga-DPI-4452 followed by a single administration (day 8) of 33 MBq of ^177Lu-DPI-4452.
(§5) In groups A-D, radioactivity uptake (as % of injected dose/gram tissue) was assessed in the tumor, kidney, and liver in 3 animals per treatment group by whole-body SPECT/CT imaging (nanoScan SPECT/CT, Mediso) at 4 h after each ^177Lu-DPI-4452 administration, using the following parameters: • Imaging bed: Two/three mice bed • CT acquisition • Helical scan, 480 projections • Pitch=1.0 • Voltage=50 kVp • Exposure=170 ms • SPECT acquisition: • Pinhole SPECT • Energy windows: Primor Peak 208 full width: 20%, Secondary 112.9, Tertiary: 56.1 keV • Acquisition time: Up to 30 min • Frame time: 30 s
(§6) In the satellite mice (group E), radioactivity uptake (as % of injected dose/gram tissue) was assessed in the tumor, kidney, and liver in all 6 animals by both whole-body SPECT imaging at 4 h after administration of 33 MBq ^177Lu-DPI-4452, and by whole-body PET/CT imaging (nanoScan PET/CT, Mediso) at 1 h after 10 MBq ^68Ga-DPI-4452 administration, using the following parameters: • Animals per bed: 3 • PET acquisition time: Up to 10 min • PET acquisition start: 1 hour after injection
(§7) One week later the 6 satellite mice were then assessed again for radioactivity uptake by whole-body SPECT/CT imaging at 4 h after the single ^177Lu-DPI-4452 administration using parameters as described above.
(§8) For both models blood sampling for hematology was performed on all animals in group A-D at study day −1, 7, 14 and at study end. Each mouse was restrained and 200 μl blood was obtained from the sublingual or jugular vein in EDTA-tubes and analyzed on the sampling day on a ProCyte Dx Hematology Analyzer with mouse settings. In addition, for the SK-RC-52 model at study day 14 and at study end (day 43), excess blood from the hematology analysis was spun and plasma was obtained (centrifugation at 2000 g for 10 mins at 4° C. in EDTA tubes). The plasma was analyzed for creatinine and urea concentrations using a KONELAB PRIME 30i instrument (Thermo Fisher Scientific).

The subject of data set [3] is SK-RC-52 (ccRCC) human cancer cell line xenograft. The experiment in a line: In vivo efficacy, uptake and tolerability of 177Lu-DPI-4452 (and 68Ga-DPI-4452) in SK-RC-52 xenograft mouse model. Details: species or system NMRI nude mice. To be noted: SK-RC-52 model; for tolerability of treatment: 177Lu 33 or 100 MBq or 3×33 MBq, 68Ga 10 MBq, i.v.; for uptake in tumor compared to kidney and liver: SPECT/CT 4 h (177Lu) or PET/CT 1 h (68Ga). The protocol:
as §1, §2, §3, §4, §5, §6, §7, §8

Starred links: 1 amine or outer side, 2 acyl side, 3 side chain; linkers in the order of their positions; H or OH if unused. Positions of bridges follow the written chain, without caps; N, C: chain ends. Residues, ends and D or L forms follow the SMILES beside them. *: point of attachment. X47 = NC(=O)[C@H](CCCCNC(=O)CCCC[C@@H]1SC[C@@H]2NC(=O)N[C@@H]21)NC(=O)CCC(=O)NCCCOCCOCCOCCCN*; mXylylene = c1cc(C[*:1])cc(C[*:2])c1

Take `CC[C@H](C)[C@@H]1NC(=O)[C@H](CCC(=O)O)NC(=O)[C@@H](NC(=O)[C@H](CCC(N)=O)NC(=O)[C@@H](N)CCSC)CSCc2cccc(c2)CSC[C@@H](C(=O)NCCCOCCOCCOCCCNC(=O)CCC(=O)N[C@@H](CCCCNC(=O)CCCC[C@@H]2SC[C@@H]3NC(=O)N[C@@H]32)C(N)=O)NC(=O)[C@H]([C@@H](C)O)NC(=O)[C@H](C(C)C)NC(=O)[C@H](Cc2c[nH]c3ccccc23)NC(=O)CNC(=O)[C@H](CC(=O)O)NC(=O)[C@H](C(C)C)NC(=O)[C@H](Cc2c[nH]c3ccccc23)NC1=O` [3BP-2775] (H-MQCEIWVDGWVTC-X47; linker 3-13 via mXylylene): the EC50 in data set [1] is 10 to 79.4 nM.
On the same count and under the same terms, for `CSCC[C@H](N)C(=O)N[C@H](C(=O)N[C@@H](Cc1ccc(O)cc1)C(=O)N[C@H]1CSCc2cccc(c2)CSC[C@@H](C(=O)NCCCOCCOCCOCCCNC(=O)CCC(=O)N[C@@H](CCCCNC(=O)CCCC[C@@H]2SC[C@@H]3NC(=O)N[C@@H]32)C(N)=O)NC(=O)[C@H](CCC(N)=O)NC(=O)[C@H](Cc2c[nH]c3ccccc23)NC(=O)[C@H]([C@@H](C)O)NC(=O)[C@H](CC(C)C)NC(=O)[C@H](Cc2c[nH]c3ccccc23)NC(=O)[C@H](CC(=O)O)NC(=O)CNC(=O)[C@H](CCC(=O)O)NC1=O)C(C)C` [3BP-2776] (H-MVYCEGDWLTWQC-X47; linker 4-13 via mXylylene) the value was less than 10 nM; for `CSCC[C@H](N)C(=O)N[C@H](C(=O)N[C@@H](Cc1ccc(O)cc1)C(=O)N[C@H]1CSCc2cccc(c2)CSC[C@@H](C(=O)NCCCOCCOCCOCCCNC(=O)CCC(=O)N[C@@H](CCCCNC(=O)CCCC[C@@H]2SC[C@@H]3NC(=O)N[C@@H]32)C(N)=O)NC(=O)[C@H](CO)NC(=O)[C@H](Cc2c[nH]c3ccccc23)NC(=O)CNC(=O)[C@H](CC(C)C)NC(=O)[C@H](Cc2c[nH]c3ccccc23)NC(=O)[C@H](CO)NC(=O)CNC(=O)[C@H](CCC(=O)O)NC1=O)C(C)C` [3BP-2777] (H-MVYCEGSWLGWSC-X47; linker 4-13 via mXylylene), less than 10 nM.
For `CC(C)C[C@@H]1NC(=O)[C@H](Cc2cccc(NC(=O)CCCS(N)(=O)=O)c2)NC(=O)[C@H](CC(=O)O)NC(=O)[C@H]2CCCN2C(=O)[C@H](CCC(=O)O)NC(=O)[C@@H](NC(=O)[C@H](CCC(N)=O)NC(=O)CN2CCN(C(=O)CN3CCN(CC(=O)O)CCN(CC(=O)O)CCN(CC(=O)O)CC3)CC2)CSCc2cccc(c2)CSC[C@@H](C(N)=O)NC(=O)[C@H](CO)NC(=O)[C@H](Cc2c[nH]c3ccccc23)NC(=O)[C@H]([C@@H](C)O)NC1=O` [^68Ga-DPI-4452, metal not drawn], in data set [2], the tolerability of treatment entry is given as “well tolerated”; the “uptake in tumor compared to kidney and liver” value was “Preferential tumor uptake”. In addition, in data set [3], the tolerability of treatment entry is reported as “well tolerated”; the “uptake in tumor compared to kidney and liver” value is given as “Preferential tumor uptake”.
With `CC(C)C[C@@H]1NC(=O)[C@H](Cc2cccc(NC(=O)CCCS(N)(=O)=O)c2)NC(=O)[C@H](CC(=O)O)NC(=O)[C@H]2CCCN2C(=O)[C@H](CCC(=O)O)NC(=O)[C@@H](NC(=O)[C@H](CCC(N)=O)NC(=O)CN2CCN(C(=O)CN3CCN(CC(=O)O)CCN(CC(=O)O)CCN(CC(=O)O)CC3)CC2)CSCc2cccc(c2)CSC[C@@H](C(N)=O)NC(=O)[C@H](CO)NC(=O)[C@H](Cc2c[nH]c3ccccc23)NC(=O)[C@H]([C@@H](C)O)NC1=O` [^177Lu-DPI-4452, metal not drawn], the “white blood cells, lymphocytes and neutrophils versus vehicle” value in data set [2] (33/100 MBq) and in data set [3] (33/100 MBq) was “relative suppression” each time. Moreover, the tolerability of treatment entry in data set [2] and in data set [3] was “well tolerated” throughout. The “uptake in tumor compared to kidney and liver” value in data set [2] is “Preferential uptake in the tumor compared to kidney and liver”; in data set [3], “Preferential uptake in the tumor compared to kidney and liver”. In addition, in data set [3] (plasma, day 14 and study end), the “creatinine and urea levels” value is “No differences in creatinine and urea levels between treatment groups”.
